Laboratory results: US20120282676A1, “Compositions and Methods for Enhancing Lipid Production in Marine Microalgae” (Old Queens, priority 2011, published 2012)

Columns and labels:
[1] = system: Phaeodactylum tricornutum; experiment: Growth of P. tricornutum cultures in different nitrogen regimes (cell densities, Coulter counter); assay type: cell-based; conditions: relative to the control (NO3+Mo)
Procedure: This was also the reason to perform all experiments in artificial medium. […] During the period of acclimation the cultures were maintained at 18° C., under continuous light using liner cool fluorescent lamps emitting white light at 300 μmol quanta·m^-2·s^-1, and 0.2 μm filtered air bubbling. Periodic dilutions with fresh media were also executed to main the cells in exponential phase of growth. […] The light intensity and temperature were maintained as described above. After 3 days (72 h) of growth samples were collected and processed for further analyses (described bellow). Experiments were performed at least in triplicate. The cellular densities were monitored with a Coulter counter multisizer 3 (Beckman Coulter Inc, Fullerton, Calif., USA).

[2] = system: Phaeodactylum tricornutum; experiment: Fatty acids extraction and analysis (FAME, GC-FID); assay type: cell-based; conditions: for more fatty acid per cell than the control: relative to NO3− replete cells (control)
Procedure: Fatty acid methyl esters (FAME) extraction and methylation was based on a method developed by Rodriguez-Ruiz et al., 1998. […] The vials were sealed with a Teflon-lined cap and boiled in a water-bath for 1 h. After incubation the vials were cooled to room temperature and 1 ml of milliQ water was added to each sample. Samples were vortexed and centrifuged (5 min, 3000 rpm) to allow phase separation and the top […] phases were transferred with glass-pipettes to GC vials with Teflon-lined caps (Fisher Scientific). FAME analyses were performed in a gas-chromatographer (GC 2010 Shimadzu, Japan) equipped with a TR-FAME (0.25 μm×60 m) column (Thermo electron corporation, USA) and a flame ionization detector (FID). Helium was used as the carrier gas at 26 psi. The injector and detector temperatures were 240° C. and 250° C. respectively. The time-oven temperature program was: 140° C. (5 min) increasing up to 240° C. at 4° C.·min^-1. FAMEs were identified by reference to authentic standards (SupelcoTM 37 component FAME, Sigma-Aldrich) processed and analyzed under the same conditions.

[3] = system: nitrate reductase (NR) protein; experiment: NR western-blot; assay type: cell-based, Phaeodactylum tricornutum; conditions: FIG. 2
Procedure: Protein concentrations were determined with the bicinchoninic acid method (BCA, Pierce). […] Blots were probed for 1 h with anti-NR assimilatory (1:500) purchased from Agrisera (part no. AS08-310). Subsequently, an HRP-conjugated polyclonal goat anti-rabbit IgC antibody (Pierce, 1:10000) was used followed by chemifluorescence detection (Amersham™ ECL Plus, RPN2132). Image acquisition was performed with a molecular imager XR+ system (BIORAD, USA).

[4] = system: Phaeodactylum tricornutum; experiment: Lipid body imaging (BODIPY, epifluorescence microscopy); assay type: cell-based; conditions: BODIPY staining, FIG. 4
Procedure: Intracellular lipid bodies were stained with 10 μg·ml^-1 BODIPY (4,4-difluoro-3a, 4a-diaza-s-indacene) probe (D-3922, Molecular Probes, Invitrogen, USA). Cells were subsequently observed with an inverted epifluorescence microscope Olympus IX71 (Olympus, Japan) equipped with a mercury X-CITE 120 lamp (EXFO, Canada), using the 482/536 nm excitation/emission filter. Images were acquired with a […] high-speed monochromatic cooled CCD camera system and IPLab for Mac (v3.9) for image processing and analysis.

[5] = system: Phaeodactylum tricornutum; conditions: preliminary LC-MS analyses, FIG. 6
Text: FIG. 6. Liquid-chromatography mass-spectrometry (LC-MS) plot representing the relative content of triacylglycerides (TAG) species between cells growing with nitrate or ammonium as nitrogen sources. Total lipids from P. tricronutum cells growing with nitrate or ammonium as nitrogen source (from the experiments described in the main text) were extracted with the Bligh-Dyer method (Bligh and Dyer) and analysed by liquid-chromatography mass-spectrometry (LC-MS).

[6] = system: Phaeodactylum tricornutum; experiment: Metabolite profiling (LC-MS/MS); assay type: cell-based; conditions: W-mediated NR inactivation of NO3− grown cells
Procedure: Metabolite profiles were obtained via the method described by Bennette et al. (2010). Cells were quenched via rapid filtration of 14.3 million cells followed by immediate transfer of filters to 1.8 mL of 80:20 methanol:water at −20° C. in 35×10 mm Petri dishes. Filters were incubated at −20° C. for 15 minutes and scraped clean of cells in the extraction solvent. The 1.8 mL of extraction solvent with cells was transferred to 2 mL eppendorf tubes, followed by a 0.25 mL 80:20 methanol:water at −20° C. wash of the filter to collect remaining quenched cell material. The eppendorf tubes were spun at 4° C., and supernatant was collected. To the cell pellet, 100 μL 80:20 methanol:water at −20° C. was added, vortexed, incubated at −20° C. for 15 minutes, and pelletted. The 100 μL was combined with the original supernatant, and 50 μL transferred to GC vials. […] Standards for each metabolite, run with sample background, were used for quantification. The column used was a Synergi 2.5μ hydro RP 100A, size 100×2 mm (Phenomonex, Torrance, Calif., USA).

[7] = system: Selenastrum capricornutum; conditions: sodium tungsten in small concentration (≦400 μM); Strigul et al. 2009; cited from earlier work

| SMILES | decrease of growth rate [1] | more fatty acid per cell than the control ([2]; 3 days) | NR protein band (approximately 100 kDa) in western-blot [3] | number of lipid bodies per cell [4] | TAG species relative to NO3− grown cells [5] | more total fatty acid than with NO3− (Dunaliella terciolecta; D. terciolecta, NH4+ as nitrogen source) | Fatty acids cell^−1 (total fatty acid) ([2]; P. tricornutum, 3 days, mean ± SD, n ≧ 3) | higher rate of fatty acid accumulated per unit volume ([2]; W added to NH4+ growing cultures, compared to all the other situations, FIG. 1B) | glutamate and glutamine levels, share of control levels [6] | average growth rate (Dunaliella terciolecta; D. terciolecta, W in conjunction with NH4+) | more fatty acid per unit volume than nitrate-grown cultures (Dunaliella terciolecta; D. terciolecta, W in conjunction with NH4+, after 3 days, FIG. 7) | higher rates of lipid production per unit biomass than in controlled conditions (Dunaliella terciolecta; tungsten in combination with ammonium, organism not given) | effect on growth [7] |
| --- | --- | --- | --- | --- | --- | --- | --- | --- | --- | --- | --- | --- | --- |
| Cl.N [NH4+, NH4Cl] | 10% | ≥ 40% | weak band | very high numbers | all TAG species of P. tricornutum NH4+ grown cells increase | 13% | – | – | – | – | – | – | – |
| [Na+].[Na+].[O]=[W](=[O])([O-])[O-] [W, sodium tungsten] | – | 40% | – | – | – | – | 3.99 ± 0.24 pg | over 30% | about 10% | increased the average growth rate | 88% | 87% | stimulated growth |
